Patent US6706663B2, “Herbicidal 3-heterocyclic substituted benzisothiazole and benzisoxazole compounds” (Wyeth, priority 2000, dated 2004)

Tests used:
[1] = test system: IPOHE (Ipomoea hederacea); assay: Postemergence herbicidal evaluation; type: in vivo, (L.) Jacq.
Procedure, shortened: (§1)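 Seedlings grown about two weeks in flats, sprayed, then kept under standard greenhouse care. Rated visually 4–5 weeks after treatment on a 0–9 scale (stand, vigour, malformation, size, chlorosis, overall appearance) relative to untreated control; repeat tests averaged.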

[2] = test system: ECHCG (Echinochloa crus-galli); assay: Postemergence herbicidal evaluation; type: in vivo, (L.) Beau
Procedure, shortened: as §1

SETVI (Setaria viridis) [3] = assay: Postemergence herbicidal evaluation; type: in vivo, (L.) Beau
Procedure, shortened: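 Seedlings grown about two weeks were sprayed with compound in 50/50 acetone/water containing 0.5% TWEEN 20, at about 0.0040 to 1.000 kg/ha via nozzle at 40 psi. Plants were kept under greenhouse conditions and visually rated on a 0-9 scale versus control four to five weeks after treatment; replicate tests averaged.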

[4] = test system: GLXMAW (Soybean, Williams); assay: Postemergence herbicidal evaluation; type: in vivo, Glycine max, (L.) Merr. cv Williams
Procedure, shortened: as §1

ORYSAT (Rice, Tebonnet) [5] = assay: Postemergence herbicidal evaluation; type: in vivo, Oryza sativa, (L.) Tebonnet
Procedure, shortened: as §1

[6] = test system: TRZAWR (Wheat, Winter, cv Riband); assay: Postemergence herbicidal evaluation; type: in vivo, Triticum aestivum
Procedure, shortened: as §1

ZEAMX (Corn, Field) = assay: Postemergence herbicidal evaluation; type: in vivo, Zea mays, L.
Procedure, shortened: as §1

[7] = test system: ABUTH (Abutilon theophrasti); assay: Preemergence herbicidal evaluation; type: in vivo, Medic.; conditions: preemergence, rated 4-5 weeks after treatment
[8] = test system: AMBEL (Ambrosia artemisifolia); assay: Preemergence herbicidal evaluation; type: in vivo, L.; conditions: preemergence, rated 4-5 weeks after treatment
Procedure, shortened: (§2)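 Applied before emergence as an aqueous acetone spray over seeded soil. Read-out: 0–9 visual rating covering plant stand, vigor, size, chlorosis, malformation and overall appearance compared with control, taken 4–5 weeks after spraying.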

[9] = test system: CASOB (Cassia obtusifolia); assay: Preemergence herbicidal evaluation; type: in vivo, L.; conditions: preemergence, rated 4-5 weeks after treatment
Procedure, shortened: as §2

[10] = test system: CHEAL (Chenopodium album); assay: Preemergence herbicidal evaluation; type: in vivo, L.; conditions: preemergence, rated 4-5 weeks after treatment
Procedure, shortened: as §2

GALAP (Galium aparine) = assay: Preemergence herbicidal evaluation; type: in vivo; conditions: preemergence, rated 4-5 weeks after treatment
Procedure, shortened: as §2

[11] = test system: ECHCG (Echinochloa crus-galli); assay: Preemergence herbicidal evaluation; type: in vivo, (L.) Beau; conditions: preemergence, rated 4-5 weeks after treatment
Procedure, shortened: as §2

SETVI (Setaria viridis) [12] = assay: Preemergence herbicidal evaluation; type: in vivo, (L.) Beau; conditions: preemergence, rated 4-5 weeks after treatment
Procedure, shortened: as §2

ORYSAT (Rice, Tebonnet) [13] = assay: Preemergence herbicidal evaluation; type: in vivo, Oryza sativa, (L.) Tebonnet; conditions: preemergence, rated 4-5 weeks after treatment
[14] = test system: TRZAWR (Wheat, Winter, cv Riband); assay: Preemergence herbicidal evaluation; type: in vivo, Triticum aestivum; conditions: preemergence, rated 4-5 weeks after treatment
Procedure, shortened: as §2

[15] = test system: ECHORC (Echinochloa oryzoides); assay: Flooded paddy, preemergence weed control; type: in vivo, Echinochloa oryzoides (Ard.) Fritsch.; conditions: rated 3-4 weeks after treatment, 0-9 rating scale
Procedure, shortened: (§3)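 Silt loam, sowing depth ≤0.5 cm; permanent flood 1.5–3 cm above soil; greenhouse culture after treatment. Readout: 0-9 visual scale (stand, vigor, malformation, size, chlorosis, appearance) vs control.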

[16] = test system: CYPSE (Cyperus serotinus); assay: Flooded paddy, preemergence weed control; type: in vivo, Rottb.; conditions: rated 3-4 weeks after treatment, 0-9 rating scale
Procedure, shortened: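 Herbicidal effect was scored visually on a 0–9 scale against an untreated control 3–4 weeks after treatment. Compounds were applied preemergence as 50/50 v/v aqueous/acetone mixtures into flood water (1.5–3 cm deep over silt loam), at roughly 0.0080 to 0.1250 kg/ha active ingredient.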

[17] = test system: MOOVA (Monochoria vaginalis); assay: Flooded paddy, preemergence weed control; type: in vivo, Presl.; conditions: rated 3-4 weeks after treatment, 0-9 rating scale
Procedure, shortened: as §3

Compound: COc1ccsc1-c1nsc2ccc(-n3c(=O)cc(C(F)(F)F)n(C)c3=O)cc12 [Compound 10, 3-[3-(3-methoxy-2-thienyl)-1,2-benzisothiazol-5-yl]-1-methyl-6-(trifluoromethyl)uracil]
- Postemergence herbicidal rating, IPOHE ([1]; rate 0.0320 kg/ha): 2.0
- Postemergence herbicidal rating, IPOHE ([1]; rate 0.0620 kg/ha): 2.0
- Postemergence herbicidal rating, IPOHE ([1]; rate 0.1250 kg/ha): 7.0
- Postemergence herbicidal rating, ECHCG ([2]; rate 0.0320 kg/ha): 0.0
- Postemergence herbicidal rating, ECHCG ([2]; rate 0.0620 kg/ha): 0.0
- Postemergence herbicidal rating, ECHCG ([2]; rate 0.1250 kg/ha): 0.0
- Postemergence herbicidal rating, SETVI (SETVI (Setaria viridis) [3]; rate 0.0320 kg/ha): 0.0
- Postemergence herbicidal rating, SETVI (SETVI (Setaria viridis) [3]; rate 0.0620 kg/ha): 0.5
- Postemergence herbicidal rating, SETVI (SETVI (Setaria viridis) [3]; rate 0.1250 kg/ha): 0.0
- Postemergence herbicidal rating, GLXMAW ([4]; rate 0.0320 kg/ha): 4.8
- Postemergence herbicidal rating, GLXMAW ([4]; rate 0.0620 kg/ha): 5.0
- Postemergence herbicidal rating, GLXMAW ([4]; rate 0.1250 kg/ha): 6.0
- Postemergence herbicidal rating, ORYSAT (ORYSAT (Rice, Tebonnet) [5]; rate 0.0320 kg/ha): 1.3
- Postemergence herbicidal rating, ORYSAT (ORYSAT (Rice, Tebonnet) [5]; rate 0.0620 kg/ha): 1.8
- Postemergence herbicidal rating, ORYSAT (ORYSAT (Rice, Tebonnet) [5]; rate 0.1250 kg/ha): 3.0
- Postemergence herbicidal rating, TRZAWR ([6]; rate 0.0320 kg/ha): 2.5
- Postemergence herbicidal rating, TRZAWR ([6]; rate 0.0620 kg/ha): 2.8
- Postemergence herbicidal rating, TRZAWR ([6]; rate 0.1250 kg/ha): 4.0
- Postemergence herbicidal rating, ZEAMX (ZEAMX (Corn, Field); rate 0.0320 kg/ha): 3.8
- Postemergence herbicidal rating, ZEAMX (ZEAMX (Corn, Field); rate 0.0620 kg/ha): 5.0
- Postemergence herbicidal rating, ZEAMX (ZEAMX (Corn, Field); rate 0.1250 kg/ha): 5.0
- ABUTH preemergence herbicidal rating ([7]; Rate 0.0620 kg/ha): 7.0
- ABUTH preemergence herbicidal rating ([7]; Rate 0.1250 kg/ha): 9.0
- ABUTH preemergence herbicidal rating ([7]; Rate 0.2500 kg/ha): 9.0
- AMBEL preemergence herbicidal rating ([8]; Rate 0.0620 kg/ha): 4.0
- AMBEL preemergence herbicidal rating ([8]; Rate 0.1250 kg/ha): 6.0
- AMBEL preemergence herbicidal rating ([8]; Rate 0.2500 kg/ha): 7.0
- CASOB preemergence herbicidal rating ([9]; Rate 0.0620 kg/ha): 0.5
- CASOB preemergence herbicidal rating ([9]; Rate 0.1250 kg/ha): 1.0
- CASOB preemergence herbicidal rating ([9]; Rate 0.2500 kg/ha): 1.0
- CHEAL preemergence herbicidal rating ([10]; Rate 0.0620 kg/ha): 8.0
- CHEAL preemergence herbicidal rating ([10]; Rate 0.1250 kg/ha): 9.0
- CHEAL preemergence herbicidal rating ([10]; Rate 0.2500 kg/ha): 9.0
- GALAP preemergence herbicidal rating (GALAP (Galium aparine); Rate 0.0620 kg/ha): 5.0
- GALAP preemergence herbicidal rating (GALAP (Galium aparine); Rate 0.1250 kg/ha): 8.5
- GALAP preemergence herbicidal rating (GALAP (Galium aparine); Rate 0.2500 kg/ha): 8.0
- ECHCG preemergence herbicidal rating ([11]; Rate 0.0620 kg/ha): 0.5
- ECHCG preemergence herbicidal rating ([11]; Rate 0.1250 kg/ha): 5.0
- ECHCG preemergence herbicidal rating ([11]; Rate 0.2500 kg/ha): 9.0
- SETVI preemergence herbicidal rating (SETVI (Setaria viridis) [12]; Rate 0.0620 kg/ha): 7.5
- SETVI preemergence herbicidal rating (SETVI (Setaria viridis) [12]; Rate 0.1250 kg/ha): 9.0
- SETVI preemergence herbicidal rating (SETVI (Setaria viridis) [12]; Rate 0.2500 kg/ha): 9.0
- ORYSAT preemergence herbicidal rating (ORYSAT (Rice, Tebonnet) [13]; Rate 0.0620 kg/ha): 1.0
- ORYSAT preemergence herbicidal rating (ORYSAT (Rice, Tebonnet) [13]; Rate 0.1250 kg/ha): 3.0
- ORYSAT preemergence herbicidal rating (ORYSAT (Rice, Tebonnet) [13]; Rate 0.2500 kg/ha): 7.0
- TRZAWR preemergence herbicidal rating ([14]; Rate 0.0620 kg/ha): 1.5
- TRZAWR preemergence herbicidal rating ([14]; Rate 0.1250 kg/ha): 4.5
- TRZAWR preemergence herbicidal rating ([14]; Rate 0.2500 kg/ha): 7.0
- herbicidal rating, ECHORC ([15]; rate 0.0320 kg/ha): 0.0
- herbicidal rating, ECHORC ([15]; rate 0.1250 kg/ha): 5.0
- herbicidal rating, CYPSE ([16]; rate 0.0320 kg/ha): 0.0
- herbicidal rating, CYPSE ([16]; rate 0.1250 kg/ha): 0.0
- herbicidal rating, MOOVA ([17]; rate 0.0320 kg/ha): 9.0
- herbicidal rating, MOOVA ([17]; rate 0.1250 kg/ha): 9.0

Compound: Cn1c(C(F)(F)F)cc(=O)n(-c2ccc3snc(-c4ncccn4)c3c2)c1=O [Compound 12, 1-methyl-3-[3-(2-pyrimidinyl)-1,2-benzisothiazol-5-yl]-6-(trifluoromethyl)uracil]
- Postemergence herbicidal rating, IPOHE ([1]; rate 0.0620 kg/ha): 9.0
- Postemergence herbicidal rating, ECHCG ([2]; rate 0.0620 kg/ha): 4.0
- Postemergence herbicidal rating, SETVI (SETVI (Setaria viridis) [3]; rate 0.0620 kg/ha): 9.0
- Postemergence herbicidal rating, GLXMAW ([4]; rate 0.0620 kg/ha): 8.5
- Postemergence herbicidal rating, ORYSAT (ORYSAT (Rice, Tebonnet) [5]; rate 0.0620 kg/ha): 6.0
- Postemergence herbicidal rating, TRZAWR ([6]; rate 0.0620 kg/ha): 6.0
- Postemergence herbicidal rating, ZEAMX (ZEAMX (Corn, Field); rate 0.0620 kg/ha): 5.5
- ABUTH preemergence herbicidal rating ([7]; Rate 0.2500 kg/ha): 9.0
- AMBEL preemergence herbicidal rating ([8]; Rate 0.2500 kg/ha): 9.0
- CASOB preemergence herbicidal rating ([9]; Rate 0.2500 kg/ha): 8.5
- CHEAL preemergence herbicidal rating ([10]; Rate 0.2500 kg/ha): 9.0
- GALAP preemergence herbicidal rating (GALAP (Galium aparine); Rate 0.2500 kg/ha): 9.0
- ECHCG preemergence herbicidal rating ([11]; Rate 0.2500 kg/ha): 9.0
- SETVI preemergence herbicidal rating (SETVI (Setaria viridis) [12]; Rate 0.2500 kg/ha): 9.0
- ORYSAT preemergence herbicidal rating (ORYSAT (Rice, Tebonnet) [13]; Rate 0.2500 kg/ha): 8.5
- TRZAWR preemergence herbicidal rating ([14]; Rate 0.2500 kg/ha): 9.0
- herbicidal rating, ECHORC ([15]; rate 0.1250 kg/ha): 8.7
- herbicidal rating, CYPSE ([16]; rate 0.1250 kg/ha): 7.0
- herbicidal rating, MOOVA ([17]; rate 0.1250 kg/ha): 9.0
